Laboratory results as given in PubChem BioAssay (NCI).
Where “and” joins values, the source holds several entries; their conditions need not be identical. Identical values can stand only once.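 Values below derive from 48-hour exposures of cells grown in 96-well plates, with endpoints linearly interpolated between the two concentrations bracketing the appropriate inhibition level. At the GI50, growth is halved. At the TGI there is no net growth.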

What was measured:
Assay in all cases: NCI tumour cell line growth inhibition, 48 h
[1] = system: RXF-631 renal
[2] = system: XF 498 CNS
[3] = system: M19-MEL melanoma
[4] = system: MDA-N
[5] = system: HOP-18 NSCLC
[6] = system: DMS 273 small cell lung
[7] = system: KM20L2 colon
[8] = system: DLD-1 colon
[9] = system: LXFL 529 NSCLC
[10] = system: SN12K1 renal
[11] = system: P388 leukemia

SMILES	TGI [1] [µM]	TGI [2]	TGI [3]	TGI [4]	TGI [5]	TGI [6]	TGI [7]	TGI [8]	TGI [9]	other results
COc1cc([C@H]2c3cc4c(cc3O[C@@]3(O)COC(=O)[C@@H]23)OCO4)cc(OC)c1OC	> 100	> 100 µM	> 100 µM	> 100 µM	> 100 µM	> 100 µM	> 100 µM	> 100 µM	–	–
O=C(O)c1c(-c2cccc3ccccc23)sc(-c2cccc3ccccc23)c1C(=O)O	–	> 100 µM	> 100 µM	–	> 100 µM	> 100 µM	> 100 µM	> 100 µM	> 100 µM	–
O=[N+]([O-])c1ccc(C(c2c[nH]c3ccccc23)c2c[nH]c3ccccc23)cc1	–	–	–	27.5 µM	–	–	–	–	–	–
O=C(c1ccccc1)C(C(=O)c1ccccc1)C1(O)C(=O)c2ccccc2C1=O	–	> 100 µM	42.6 µM	–	> 100 µM	> 100 µM	> 100 µM	–	> 100 µM	–
CN1CC[C@@H](c2c(O)cc(O)c3c(=O)cc(-c4ccccc4Cl)oc23)[C@@H](O)C1	–	0.533 µM	–	0.349 µM and 0.148 µM	–	0.32 µM	–	> 100 µM	> 68.6 µM	GI50 [4]: 0.124 µM and 0.0494 µM
C[C@@H]1C[C@@H](O)[C@]2(O)O[C@@H]3C[C@@]4(C=O)[C@@H](CC[C@@H]5[C@@H]4CC[C@]4(C)[C@@H](C6=CC(=O)OC6)CC[C@]54O)C[C@H]3O[C@@H]2O1	–	0.0571 µM and 0.0493 µM	0.104 µM and 0.0732 µM	0.189 µM	–	0.0724 µM and 0.0123 µM	0.0631 µM and 0.107 µM	0.0375 µM and 0.033 µM	0.0164 µM and 0.0576 µM	GI50 [2]: 0.0206 µM; GI50 [3]: 0.0125 µM; GI50 [5]: 0.005 µM; GI50 [7]: 0.0218 µM; GI50 [8]: 0.0053 µM
CCOC(=O)C(=O)Nc1nc2c(s1)C(=O)c1ccccc1C2=O	27.8	26.9 µM	7.45 µM	–	–	40.6 µM	40.7 µM	31.8 µM	26.2 µM	–
N#CCC1COc2ccccc2O1 (configuration not stated)	–	–	–	> 10 µM	–	–	–	–	–	–
O=C(c1ccccc1)C(c1ccccc1)C1(O)C(=O)Nc2c(Cl)cc(Cl)cc21 (configuration not stated)	38	> 100 µM	–	–	36.6 µM	83.2 µM	> 100 µM	37.5 µM	25.7 µM	–
COc1ccc(C(=O)/C(Br)=C/C(=O)O)cc1	–	16 µM	106 µM	209 µM and 153 µM	139 µM	26.3 µM	185 µM	73.5 µM	–	TGI [10]: 22.6 µM; GI50 [4]: 47.4 µM; TGI [11]: 53.7 µM
CCOC(=O)[C@@]1(C)C=C2O[C@@H]3OC4(CCCCC4)O[C@@H]3C2=C2C(O)=CC=C(O)[C@]21C(=O)OC	> 68	> 68 µM	> 68 µM	–	> 68 µM	> 68 µM	> 68 µM	> 68 µM	> 68 µM	–
O=C(O)CSc1n[nH]c(-c2ccc(O)cc2)n1	> 100	> 100 µM	> 100 µM	–	> 100 µM	> 100 µM	> 100 µM	> 100 µM	–	–
O=C(CNc1nncs1)NO	–	–	> 100 µM	–	> 100 µM	> 100 µM	> 100 µM	> 100 µM	> 100 µM	–
N#CCC(=O)Nc1cccc(C(F)(F)F)c1	> 100	> 100 µM	> 100 µM	–	> 100 µM	> 100 µM	> 100 µM	> 100 µM	> 100 µM	–
CC(=O)O/C=C(/C=C/OC(C)=O)C(C/C=C(\C)C#CC=C(C)C)OC(C)=O (configuration not stated)	> 100	> 100 µM	41.7 µM	–	> 100 µM	> 100 µM	> 100 µM	> 100 µM	37.1 µM	–
Cc1ncc(CN=Cc2ccc(Cl)cc2)c(N)n1	–	–	–	> 100 µM	–	–	–	–	–	–
COc1cc(CCc2ccc(OCCN(C)C)cc2)cc(OC)c1OC	> 100	93.7 µM	> 100 µM	–	> 100 µM	> 100 µM	> 100 µM	> 100 µM	> 100 µM	–
Cc1nc2c(nc1C)C(=O)c1cc(O)ccc1C2=O	–	–	22.3 µM	–	> 100 µM	> 100 µM	> 100 µM	> 86.8 µM	> 100 µM	–
Cn1c(=O)nc2n(-c3ccc(Cl)cc3)c3ccc(Cl)cc3nc-2c1=O	–	–	–	–	–	–	36.7 µM	–	–	–
CCOc1ccccc1NC(=O)C(=O)CC(=O)c1c(C)n([O-])c2ccccc2[n+]1=O	–	–	> 100 µM	–	> 100 µM	> 100 µM	> 100 µM	–	> 100 µM	–

SMILES	TGI [1] [µM]	TGI [2]	TGI [3]	TGI [4]	TGI [5]	TGI [6]	TGI [7]	TGI [8]	TGI [9]	other results
Nn1c(-c2ccccc2)nc2ccc(Br)cc2c1=O	> 100	> 100 µM	> 100 µM	–	> 100 µM	> 100 µM	> 100 µM	> 100 µM	> 100 µM	–
N#Cc1c(-c2nc3ccccc3s2)c(=O)oc2cc(O)ccc12	–	–	–	> 100 µM	–	–	–	–	–	–
CC1=C(C)C(=O)c2c(cc3ccc4ccccc4n23)C1=O	> 100	–	> 100 µM	–	> 100 µM	> 100 µM	–	> 100 µM	> 100 µM	–
O=C1CC(O)C=C1Nc1ccc(Cl)cc1 (configuration not stated)	> 100	–	> 100 µM	–	> 100 µM	> 100 µM	37.8 µM	> 100 µM	> 100 µM	–
COC(=O)C1CC2(CC3=C1CCCC3)OCCO2 (configuration not stated)	> 100	> 100 µM	> 100 µM	–	–	> 100 µM	–	> 100 µM	> 100 µM	–
CC[C@H](C)N(CCN)C(=O)c1cc2ccccc2c(-c2ccccc2Cl)n1	–	–	–	–	–	27.6 µM	26.6 µM	–	10.4 µM	–
O=C1C(=O)N(C(=O)c2ccc(Cl)c(Cl)c2)c2ccccc21	> 100	–	> 100 µM	–	> 100 µM	> 100 µM	–	> 100 µM	> 100 µM	–
N#Cc1c(Sc2ccccc2N)cccc1Sc1ccccc1N	–	–	–	–	–	–	–	–	–	GI50 [4]: 49.1 µM
Cc1cc2c(c(C#N)c1C)NC(=O)CCC2=O	> 100	> 100 µM	> 100 µM	–	–	> 100 µM	> 100 µM	> 100 µM	> 100 µM	–
N#Cc1cn(C2OC(CO)C(O)C2O)c2ncnc(N)c12 (configuration not stated)	–	0.013 µM and 0.0663 µM	1.56 µM and 7.69 µM	–	–	0.39 µM and 0.07 µM	3.42 µM and 12 µM	> 272 µM	–	TGI [10]: 3.13 µM; GI50 [2]: 0.045 µM; GI50 [4]: 0.0281 µM; GI50 [5]: 0.0557 µM; GI50 [11]: 0.00528 µM and 0.045 µM; TGI [11]: 0.137 µM and 0.0463 µM; GI50 [7]: 0.0045 µM; GI50 [8]: 0.0277 µM
CC(=O)n1c(COS(C)(=O)=O)nc2ccccc21	–	–	–	> 100 µM	–	–	–	–	–	–
CNC(P(=O)([O-])[O-])P(=O)([O-])[O-].N.N.[Pt+2]	–	–	–	–	> 100 µM	> 100 µM	> 100 µM	> 100 µM	> 100 µM	GI50 [9]: > 100 µM; GI50 [5]: > 100 µM; GI50 [6]: > 100 µM; GI50 [7]: > 100 µM; GI50 [8]: > 100 µM
Nc1nc(SCc2ccccn2)c2ncn(C3CCCC3)c2n1	–	–	–	> 100 µM	–	–	–	–	–	–
CC1=C(C(=O)Nc2c(C)cccc2C)C(c2ccc3c(c2)OCO3)C(C(=O)Nc2c(C)cccc2C)=C(C)N1	42.3	–	–	–	48.2 µM	–	29 µM	86.8 µM	43.9 µM	–
COc1cccc(C2CC(C)(N3CCCC3)Oc3cc4c(cc32)OCO4)c1O (configuration not stated)	–	–	–	10.7 µM	–	–	–	–	–	–
CN1CCN(CN2C(=O)C3C4C=CC(C3C2=O)C2C3C(=O)N(CN5CCN(C)CC5)C(=O)C3C42)CC1 (configuration not stated)	–	–	–	32.5 µM	71 µM and 34.4 µM and > 100 µM	39.4 µM and 30.9 µM and 10.6 µM	56.8 µM and 40.9 µM and 63.4 µM	49.7 µM and 41 µM and 52.4 µM	35.9 µM and 32.7 µM and 57.3 µM	GI50 [5]: 34.4 µM and 13 µM and 48.6 µM
Nc1ccn(CCOC(=O)c2ccccc2)c(=O)n1	> 100	–	–	–	> 100 µM	> 100 µM	> 100 µM	> 100 µM	> 100 µM	–
COc1cc(OC)c([C@@H]2OC(=O)C3C2C(=O)O[C@H]3c2cc(OC)c(OC)cc2OC)cc1OC (some centres not stated)	–	> 100 µM	> 100 µM	–	> 100 µM	> 100 µM	> 100 µM	> 100 µM	> 100 µM	–
Cc1ccc(OCC(=O)N2N=C(c3ccccc3)CC2(O)c2ccccc2)cc1 (configuration not stated)	> 100	> 100 µM	> 100 µM	–	–	40.2 µM	41.3 µM	> 100 µM	> 100 µM	–
C=CCn1c2c(c3ccccc3c1=O)C(=O)c1ccccc1-2	–	–	–	> 100 µM	–	–	–	–	–	–
